Measurements as given in US3961041A, “Effervescent enteric coated L-dopa formulation and method of using the same” (priority 1974, dated 1976).

Tests used:
Parkinson's Disease = details: in vivo, po; cited from earlier work
[1] = cited from earlier work
decarboxylase enzymes = details: cited from earlier work
[2] = Absorption of L-DOPA from the gastrointestinal tract (inventors' experimentation); assay type: in vivo
Description: As for (1), it has been confirmed that the decomposition of L-DOPA in the stomach is remarkable as shown in numerous reports in the past.
As a result, optimum absorption of the drug is totally incomplete.

[3] = dopamine as metabolite; cited from earlier work

Row | absorption from the gastrointestinal tract ([2]; in vivo) | absorption, oral as compared to intravenous ([2]; oral vs intravenous) | Structure (SMILES) | side effects when massive dosing is administered (Parkinson's Disease) | decomposition in the stomach ([1]; in vivo) | stability in the gastrointestinal tract, especially in the stomach ([1]; in vivo) | absorption from the gastrointestinal tract (prior art reason) ([1]; oral) | decarboxylation via decarboxylase enzymes in the intestine (decarboxylase enzymes) | optimum absorption site ([2]; in vivo) | therapeutic effect in the treatment of Parkinson's Disease [3]
1 | almost completely absorbed | not appreciably different | N[C@@H](Cc1ccc(O)c(O)c1)C(=O)O [L-DOPA, 3,4-dihydroxy-L-phenylalanine] | marked side effects | remarkable | unstable | poorly absorbed | apt to undergo decarboxylation | small intestine, especially in the upper part thereof | –
2 | – | – | NCCc1ccc(O)c(O)c1 [dopamine] | – | – | – | – | – | – | does not have any therapeutic effect
